The text below walks through data of paper PMC12192976, “Unique Structural Features Relate to Evolutionary Adaptation of Cytochrome P450 in the Abyssal Zone” (International Journal of Molecular Sciences, 2025).

In assay [1] the target is T1, C. armatus CYP51 (Coryphaenoides armatus, UniProt Z9AQN8BZD8). Briefly: Inhibition of reconstituted lanosterol 14α-demethylation, 1 h reaction. To be noted: enzyme/inhibitor/substrate 1:50:50, 60 min.
Method: (§1) The samples were preincubated for 3 min at 37 °C in a shaking water bath, and the reaction was initiated by the addition of 100 μM NADPH and stopped by the extraction of sterols with ethyl acetate. The extracted sterols were dried, dissolved in 100 µL of methanol, and the products were analyzed by reversed-phase HPLC equipped with a β-RAM detector (INUS Systems) using a Nova-Pak 3.9 mm × 150 mm (4 μm) octadecylsilane (C18) HPLC column. The products were separated with an isocratic mobile phase composed of acetonitrile and methanol (4:1 (v/v)) at a flow rate of 0.75 mL/min [9]. Michaelis–Menten parameters were calculated using GraphPad Prism. The kcat and Km values for each reaction were determined by fitting the data to a Michaelis–Menten hyperbola, with the reaction rates (nmol product formed/nmol P450/min) being plotted versus total substrate concentration.
Assay [2] addresses T1, C. armatus CYP51. Put plainly: Reconstituted sterol 14α-demethylation, steady-state (Michaelis–Menten) kinetics. To be noted: 0.25 µM P450, 1 µM CPR, 1 min reaction, 37 °C; for kcat: sterol 3.12−37.5 µM.
Method: as §1
In assay [3] the target is T1, C. armatus CYP51. Briefly: Spectral titration of C. armatus CYP51 with sterol substrates (type I response). The note with it: P450 2 µM; for Kd: read-out: Kd (apparent spectral dissociation constant, sterol substrate), titration step 0.25 µM; for Spin State Transition in the Heme Iron: sterol 0.25−3 µM, 22 °C.
Method: Equal amounts of the HPCD solution were added to the reference cuvette to correct for the solvent-induced spectral perturbations, and the difference spectra were taken in the wavelength range of 350–500 nm. […] The apparent spectral dissociation constants (Kd) were calculated in GraphPad Prism software, as described, for human CYP51 [22].
In assay [4] the target is T1, C. armatus CYP51. Briefly: Stabilization of C. armatus CYP51 by TMAO (CO-binding spectra after overnight storage). The method, then:
Absorption spectra (270–700 nm) were recorded at 22 °C using a dual-beam Shimadzu UV-2600i spectrophotometer and UVProbe2.71 software. The P450 concentration was determined from the Soret band absorbance in the absolute spectrum, with the extinction coefficient 117 mM^−1 cm^−1 for the low-spin ferric form or 91 mM^−1 cm^−1 for the reduced (ferrous) carbon monoxide (CO) complex in the difference spectra. The spin state of the P450 samples was estimated from the absolute spectra using the ratio (ΔA393–470/ΔA417–470), with values of 0.35 and 2.0 corresponding to 100% low- and 100% high-spin iron, respectively.
After data collection the crystals were dissolved in phosphate buffered saline (PBS, Gibco, Billings, MT, USA). UV-visible absolute absorption spectra (270–700 nm) were recorded at room temperature using a NanoVue,4282 single beam spectrophotometer (CE Healthcare, Cardiff, UK) (Figure S4A). CO-binding difference absorption spectra (400–500 nm) were recorded using a dual-beam Shimadzu UV-2600i spectrophotometer as follows. The CO gas was bubbled through the protein solution, which was then divided into two cuvettes serving as a blank and standard, respectively. The baseline was taken, and a few crystals of […] were added to the sample cuvette (Figure S4B). […]

Assay [5] concerns the target T1, C. armatus CYP51. Briefly: Spectral titration with azole-based ligands (type II response).
Method: Equal amounts of the HPCD solution were added to the reference cuvette to correct for the solvent-induced spectral perturbations, and the difference spectra were taken in the wavelength range of 350–500 nm. […] Titrations with azole-based compounds were carried out at 0.5 µM P450 concentration in 5 cm optical path length cuvettes. Aliquots of 0.1 mM compounds dissolved in dimethyl sulfoxide (DMSO) were added to the sample cuvette, with each titration step being 0.1 µM. At each step, the corresponding volume of DMSO was added to the reference cuvette. The apparent spectral dissociation constants (Kd) were calculated in GraphPad Prism software, as described, for human CYP51 [22].
Assay [6] deals with human CYP51. Also noted: method as in PMID 27313059. The note with it: read-out: apparent dissociation constant (Kd), azole ligand; cited from earlier work.
Assay [7] concerns the target T1, C. armatus CYP51.
Method: as §1
In assay [8] the test system is human CYP51. More on the design: method as in PMID 27313059. To be noted: cited from earlier work.
Setting [9] is: read-out: apparent dissociation constant (Kd), azole ligand, P450 0.5 µM, titration step 0.1 µM.

T1 sequence (Z9AQN8BZD8 6-449 limits assumed): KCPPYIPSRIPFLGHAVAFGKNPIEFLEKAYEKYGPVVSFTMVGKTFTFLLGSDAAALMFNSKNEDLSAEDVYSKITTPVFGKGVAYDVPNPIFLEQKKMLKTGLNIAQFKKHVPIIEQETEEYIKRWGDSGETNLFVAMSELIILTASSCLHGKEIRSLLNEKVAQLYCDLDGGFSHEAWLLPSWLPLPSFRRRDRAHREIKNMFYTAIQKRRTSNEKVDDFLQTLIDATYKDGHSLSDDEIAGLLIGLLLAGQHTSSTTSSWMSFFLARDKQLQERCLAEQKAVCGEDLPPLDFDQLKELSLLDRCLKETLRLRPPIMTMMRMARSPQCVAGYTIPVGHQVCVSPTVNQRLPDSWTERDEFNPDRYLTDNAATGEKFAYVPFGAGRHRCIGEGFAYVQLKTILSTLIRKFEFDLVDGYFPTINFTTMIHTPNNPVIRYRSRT

Take `CC[C@@H]([C@H](C)O)n1ncn(-c2ccc(N3CCN(c4ccc(OC[C@@H]5CO[C@@](Cn6cncn6)(c6ccc(F)cc6F)C5)cc4)CC3)cc2)c1=O` [posaconazole]: the “inhibitory effect on the C. armatus CYP51 activity (in words)” value (shortened to “inhibitory effect”) against C. armatus CYP51 [1] is on record as “did not have any inhibitory effect”.
In the case of `O[C@@](Cn1cnnn1)(c1ccc(F)cc1F)C(F)(F)c1ccc(-c2ccc(OCC(F)(F)F)cc2)cn1` [oteseconazole], the “inhibitory effect” value at C. armatus CYP51 [1] was “did not have any inhibitory effect”.
For `C=C(CC[C@@H](C)[C@H]1CC[C@@]2(C)C3=C(CC[C@]12C)[C@@]1(C)CC[C@H](O)[C@@H](C)[C@@H]1CC3)C(C)C` [Obtusifoliol, obtusifoliol], on C. armatus CYP51 [2], the Km (in general, the concentration of substrate that gives half-maximal velocity) is 7.9 ± 0.6 µM; the kcat – broadly, the number of substrate molecules converted per active site and unit of time at saturation – was found to be 0.865 ± 0.03 s⁻¹. Also, at C. armatus CYP51 [3], the Kd was 560 ± 30 nM and the “Spin State Transition in the Heme Iron” value came out at 13%.
For the compound `C[C@@H](c1nc(-c2ccc(C#N)cc2)cs1)[C@](O)(Cn1cncn1)c1cc(F)ccc1F` [isavuconazole], on C. armatus CYP51 [1], the “inhibitory effect” value is “did not have any inhibitory effect”.
Consider `C=C(CC[C@@H](C)C1CC[C@@]2(C)C3=C(CC[C@]12C)[C@@]1(C)CC[C@H](O)C(C)(C)C1CC3)C(C)C` (stereo partly shown), for which, at C. armatus CYP51 [2], the Km turned out to be 13 ± 0.9 µM and the kcat worked out at 1.03 ± 0.0383 s⁻¹. Besides, on C. armatus CYP51 [3], the Kd was found to be 1020 ± 40 nM and the “Spin State Transition in the Heme Iron” value was determined as 27%.
As to `CC(C)=CCC[C@@H](C)[C@H]1CC[C@@]2(C)C3=C(CC[C@]12C)[C@@]1(C)CC[C@H](O)C(C)(C)[C@@H]1CC3` [Lanosterol], on C. armatus CYP51 [2], the Km stood at 8.1 ± 1.1 µM and the kcat was found to be 0.797 ± 0.0317 s⁻¹. In addition, at C. armatus CYP51 [3], the Kd was found to be 770 ± 40 nM and the “Spin State Transition in the Heme Iron” value is reported as 22%.
In the case of `N#Cc1ccc(COc2ccc(C#Cc3ccc(C(F)(F)[C@](O)(Cn4cnnn4)c4ccc(F)cc4F)nc3)cc2)cc1` [VT-1598], the “inhibitory effect” value on C. armatus CYP51 [1] is “did not have any inhibitory effect”.
On to `C[N+](C)(C)[O-]` [TMAO, Trimethylamine oxide], for which the “spectral response in the C. armatus CYP51 heme iron (in words)” value at C. armatus CYP51 [4] was “does not cause any spectral response”. For the same compound, the “P450 recovery after overnight incubation (CO-binding spectra)” value on C. armatus CYP51 [4] (10 mM TMAO, overnight storage at 4 °C in PBS) was 90%.
Turning to `CCC(C)n1ncn(-c2ccc(N3CCN(c4ccc(OCC5COC(Cn6cncn6)(c6ccc(Cl)cc6Cl)O5)cc4)CC3)cc2)c1=O` (stereo not shown) [itraconazole], the Kd on C. armatus CYP51 [5] (setting [9]) was 620 nM; at human CYP51 [6] it was 1290 nM. The “inhibitory effect” value at C. armatus CYP51 [1] is reported as “did not have any inhibitory effect”.
Take `O=C(N[C@@H](Cn1ccnc1)c1ccc(-c2ccc(F)cc2)cc1F)c1ccc(-c2nnc(-c3ccccc3)o2)cc1` [VFV, (R)-N-(1-(3,4′-difluorobiphenyl-4-yl)-2-(1H-imidazol-1-yl)ethyl)-4-(5-phenyl-1,3,4-oxadiazol-2-yl)benzamide]: the “inhibition of CYP51 activity” value at C. armatus CYP51 [7] was 93%; in the assay on human CYP51 [8] (human CYP51, enzyme/inhibitor/substrate 1:50:50, 60 min), 64%. For the same compound, the Kd on C. armatus CYP51 [5] is 20 nM; at human CYP51 [6] it was 90 nM.
As to `CC(=O)N1CCN(c2ccc(OCC3COC(Cn4ccnc4)(c4ccc(Cl)cc4Cl)O3)cc2)CC1` (stereo not shown) [ketoconazole], the figures for the Kd at C. armatus CYP51 [5] (setting [9]) and on human CYP51 [6] were 10 nM and 70 nM, respectively. Besides, the “lanosterol converted in presence of inhibitor” value in the assay on human CYP51 [8] (human CYP51, 50-fold molar excess of inhibitor, 1 h reaction) was 100%.
As for `C[C@@H](c1ncncc1F)[C@](O)(Cn1cncn1)c1ccc(F)cc1F` [voriconazole], the Kd was 610 nM at C. armatus CYP51 [5] (setting [9]) and 2530 nM at human CYP51 [6]. Moreover, on C. armatus CYP51 [1], the “inhibitory effect” value is on record as “did not have any inhibitory effect”.
